Where two headings read alike, the source gives them in different places.

Series [1] deals with c19orf66 protein expression. The series can be described thus: doxycycline-induced c19orf66 protein expression by western blot in transduced Vero-E6 cells. It is filed as cell-based. To be noted: bulk sorted cells re-induced with 0, 0.8, 4, 20, 100 or 500 ng/mL. On the technique in general: A western blot detects proteins with antibodies after separation by electrophoresis.
The next series concerns EGFP expression. The series can be described thus: doxycycline-induced EGFP reporter expression (microscopy / flow cytometry) in transduced Vero-E6 cells. It is filed as cell-based. A general note: In flow cytometry, cells or beads pass a laser one at a time.
Another series concerns Vero E6 cells. To be noted: African green monkey; for Cell Health: cell death / Cell Health: cells death: 48 h.
The test system of series [2] is SARS CoV-2 (USA_WA1/2020). It is filed as cell-based.

`C[C@H]1c2cccc(O)c2C(=O)C2=C(O)[C@]3(O)C(=O)C(C(N)=O)=C(O)[C@@H](N(C)C)[C@@H]3[C@@H](O)[C@@H]21` [doxycycline]: in series [1], the “doxycycline concentration inducing c19orf66 (western blot)” value is “at least 20 ng/mL”. The “EGFP: doxycycline concentration at which EGFP is visible” value is 10 ng/mL with EGFP expression (Bulk Sorted, 48 hours); “Visible at ≧ 10 ng/mL” in the series with EGFP expression (Bulk Sorted, 96 hours); “Visible at 10 ng/mL and higher concentrations” in the series with EGFP expression (Clone 9, 48 hours); “Visible at ≧ 10 ng/mL” in the series with EGFP expression (Clone 9, 96 hours); 5 ng/mL in the series on EGFP expression (Clone 21, 48 hours); “Visible at ≧ 10 ng/mL” in the series on EGFP expression (Clone 21, 96 hours). Also, the “EGFP: doxycycline concentration giving strong signal” value in the series on EGFP expression (Bulk Sorted, 48 hours) is given as 20 ng/mL; with EGFP expression (Clone 21, 48 hours) it was 10 ng/mL. The “Cell Health: cell death” value in the series on Vero E6 cells (10 ng/mL) was 50% cell death at 10 ng/mL and worse at higher concentrations; in the series on Vero E6 cells (20 ng/mL), 50%. Also, the “Cell Health: cells death” value in the series on Vero E6 cells (50 ng/mL) amounted to 20%; in the series with Vero E6 cells (100 ng/mL), 40%. In addition, the “Cell Health: doxycycline concentration at which cell death is observed” value in the series with Vero E6 cells (96 h) was found to be 10 ng/mL.

Consider “C19orf66: Chromosome 19 Open Reading Frame 66 protein, interferon-stimulated gene; here expressed from a doxycycline-inducible lentiviral construct”, for which, in series [2], the “number of infected cells (% infected cells)” value is given as “reduction” and the “viral inhibition relative to remdesivir control” value is given as “comparable to remdesivir”.

(Values after patent publication US20230190871A1, “METHODS AND COMPOSITIONS FOR TREATMENT OF VIRAL INFECTIONS” (priority 2020, published 2023).)
